The test system of one data set is CQ-resistant malaria. Particulars: cited from earlier work; for activity against malaria / CQ-resistant malaria (in words): literature.
A further data set has as its system P. berghei. Particulars: cited from earlier work.
For data set [1], the system named is P. falciparum clone D-6 (Sierra Leone). The format is cell-based, Plasmodium falciparum. Particulars: D-6 clone (resistant to mefloquine). Here is the method: (§1) In vitro activity against P. falciparum was determined using a modification of the semiautomated microdilution technique of Desjardins et al. (1979) and Milhous et al. (1985). Two P. falciparum malaria parasite clones, designated as Sierra Leone (D-6) and Indochina (W-2), are used in susceptibility testing. The former is resistant to mefloquine, and the latter to CQ, pyrimethamine, sulfadoxine, and quinine. Test compounds are dissolved in dimethylsulfoxide, and solutions serially diluted with culture media. Erythrocytes with 0.25 to 0.5% parasitemia are added to each well of a 96-well microdilution plate to give a final hematocrit of 1.5%. […] Results are reported as […] (ng/mL) values. For a complete description of this assay, see Milhous et al. (1985) and Lin et al. (1987).

Data set [2] deals with P. falciparum clone W-2 (Indochina). The format is cell-based, Plasmodium falciparum. Here is the method: as §1
In data set [3] the test system is P. berghei (strain KBG 173). The experiment in a line: In vivo activity against P. berghei in mice, single subcutaneous dose 3 days after infection. More on the design: species or system Plasmodium berghei; mice. Particulars: for P. berghei T-C: single dose 3 days post infection, n = 5. Here is the method: In vivo activity against P. berghei was obtained against a drug-sensitive strain of P. berghei (strain KBG 173) (Osdene et al., 1967). Each test compound is administered subcutaneous to five male mice per dilution in a single subcutaneous dose 3 days after infection. Results are expressed in T-C values which indicate the mean survival time of the treated mice beyond that of the control animals; untreated mice survive on average 6.2 days. Compounds are classified as active (A) when the mean survival time of the treated mice is twice that of the controls (>6.2 days), and curative (C) when one or more test animals live 60 days post-infection. Deaths from 0-2 days post-treatment are attributed to toxicity (T).

In the next data set the test system is P. falciparum. Put plainly: In vitro activity against P. falciparum (both clones, D-6 and W-2). Particulars: for Resistance Index: IC50 (W2)/IC50 (D6) ratio. The data set is classed as cell-based, Plasmodium falciparum. Here is the method:
as §1

The nature of data set [4]: Solubility in DMSO (noted in NMR work). Particulars: 13C NMR spectra not obtainable.
The mark [5] stands for this setting: compared to CQ, Li et al., 1981a, Lin et al., 1982.

Entries after “also recorded” stand apart in the source; their conditions may differ.

Consider four compounds from US5510356A, “Bisquinolines and processes for their production and use to treat malaria” (priority 1991, dated 1996).

Take `Clc1ccc2c(NN3CCN(Nc4ccnc5cc(Cl)ccc45)CC3)ccnc2c1` [1,4-bis(7-chloro-4-quinolylamino)piperazine]: the “activity against malaria / CQ-resistant malaria (in words)” value in the data set with CQ-resistant malaria is given as “active against malaria”. In the data set on P. berghei (mice, Singh et al., 1971), the “activity against P. berghei in mice, compared with CQ” value is “significantly more effective than is CQ against P. berghei in mice”.
In the case of `Clc1ccc2c(NCCNc3ccnc4cc(Cl)ccc34)ccnc2c1` [Compound 1, N^1 N^2, -Bis(7-chloroquinolin-4-y1)ethane-1,2-diamine], in data set [1], the “P. falciparum IC50 (nM) D-6” value was determined as 17.3 nM. The “P. falciparum IC50 (nM) W-2” value in data set [2] was found to be 27.0 nM. Besides, in data set [3], the “in vivo activity against P. berghei (in words)” value is “without activity in vivo”. In addition, the “P. berghei T-C” value in data set [3] (40 mg/kg s.c.) is 0.0 days; in data set [3] (160 mg/kg s.c.), 0.4 days; in data set [3] (640 mg/kg s.c.), 1.4 days. Besides, the “in vitro activity against P. falciparum (in words)” value with P. falciparum was “approximately an order of magnitude less potent in vitro”. Also, in the data set on P. falciparum, the “Resistance Index” value is listed as 1.6. In addition, the “antimalarial activity (in words)” value in the data set with P. falciparum (general statement, refers to Table I) is listed as “antimalarial activity”. Also, the “solubility in DMSO” value in data set [4] is reported as “low solubilities in DMSO”.
On to dichloroquinazine, for which the “activity against malaria / CQ-resistant malaria (in words)” value in the data set on CQ-resistant malaria was “active against CQ-resistant falciparum malaria”. Also, the “resistance of P. berghei” value in the data set on P. berghei (CQ-resistant strain of P. berghei, Warhurst, 1966) is on record as “Resistance to dichloroquinazine, however, is noted for a CQ-resistant strain of P. berghei”.
Take `Clc1ccc2c(N3CCN(CCCN4CCN(c5ccnc6cc(Cl)ccc56)CC4)CC3)ccnc2c1` [PQ, piperaquine]: the “P. falciparum IC50 (nM) D-6” value in data set [1] amounted to 8.3 nM. Also, the “P. falciparum IC50 (nM) W-2” value in data set [2] was 16.1 nM. The “Resistance Index” value with P. falciparum is given as 1.9. Also, in the data set with CQ-resistant malaria (setting [5]), the duration of action result is on record as “longer duration of action” and the toxicity result was “less toxicity when compared to CQ”. In the data set on CQ-resistant malaria, the “activity against malaria / CQ-resistant malaria (in words)” value is listed as “active against malaria; also recorded: very effective against CQ-resistant malaria in China”.
